Test results reported in ChEMBL document CHEMBL1153653, “Imidazo[4,5-b]pyridine-based AT1 / AT2 angiotensin II receptor antagonists” (Bioorg Med Chem Lett, 1994).

Key:
[1] = target: T1, Type-2 angiotensin II receptor (Rattus norvegicus, UniProt P35351); assay: In vitro binding affinity determined by its ability to displace the specific binding ligand [125I]-Sar1, Ile8-AII from AT2 receptor in rat midbrain membranes; assay type: cell membranes, Membrane
T1 sequence (P35351 whole entry): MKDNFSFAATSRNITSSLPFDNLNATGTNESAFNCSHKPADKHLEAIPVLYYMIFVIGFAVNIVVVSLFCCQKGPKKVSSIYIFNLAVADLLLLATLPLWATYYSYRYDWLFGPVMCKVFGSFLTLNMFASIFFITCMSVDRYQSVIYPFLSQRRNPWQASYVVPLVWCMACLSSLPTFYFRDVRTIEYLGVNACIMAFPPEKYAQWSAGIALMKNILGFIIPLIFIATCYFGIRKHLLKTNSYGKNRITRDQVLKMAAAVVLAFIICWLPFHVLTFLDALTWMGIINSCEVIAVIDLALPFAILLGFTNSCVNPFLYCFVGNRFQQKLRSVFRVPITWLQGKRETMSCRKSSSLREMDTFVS

[2] = target: T2, Type-1 angiotensin II receptor (Oryctolagus cuniculus, UniProt P34976); assay: In vitro binding affinity determined by its ability to displace the specific binding ligand [125I]-Sar1, Ile8-AII from Angiotensin II receptor, type 1 in rabbit aorta membranes; assay type: cell membranes, Membrane
T2 sequence (P34976 whole entry): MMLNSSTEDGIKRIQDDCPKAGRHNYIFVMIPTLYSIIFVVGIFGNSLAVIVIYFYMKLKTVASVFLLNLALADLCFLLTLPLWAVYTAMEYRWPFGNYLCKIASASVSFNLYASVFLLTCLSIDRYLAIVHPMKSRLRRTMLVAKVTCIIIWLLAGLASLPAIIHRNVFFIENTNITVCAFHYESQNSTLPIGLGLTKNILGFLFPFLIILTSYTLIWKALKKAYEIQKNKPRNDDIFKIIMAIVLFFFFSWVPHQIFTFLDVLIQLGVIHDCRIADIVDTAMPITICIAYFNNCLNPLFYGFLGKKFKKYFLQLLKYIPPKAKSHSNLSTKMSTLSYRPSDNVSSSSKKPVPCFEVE

Canis familiaris [3] = assay: Inhibitory activity against AII-induced pressor responses in Beagle dogs at a dose of 0.3 upon iv administration at duration of >6 hr; assay type: functional, Canis lupus familiaris
Canis familiaris [4] = assay: Inhibitory activity against AII-induced pressor responses in Beagle dogs at a dose of 1.0 upon po administration at duration of >6 hr; assay type: functional, Canis lupus familiaris
Canis familiaris [5] = assay: Effective dose in Beagle dog after intravenous administration; Range is (0.025 - 0.029); assay type: functional; details: Canis lupus familiaris
Canis familiaris [6] = assay: Effective dose in Beagle dog after peroral administration; Range is (0.52 - 0.64); assay type: functional; details: Canis lupus familiaris, po
Rattus norvegicus [7] = assay: Effective dose in rat after peroral administration; Range is (0.25 - 0.31); assay type: functional; details: po
Rattus norvegicus [8] = assay: Inhibitory activity against AII-induced pressor responses in rats at a dose of 0.3 upon iv administration at duration of >6 hr; assay type: functional
Rattus norvegicus [9] = assay: Inhibitory activity against AII-induced pressor responses in rats at a dose of 0.3 upon po administration at duration of >6 hr; assay type: functional
[10] = target: Angiotensin II receptor (Homo sapiens) (UniProt P30556+P50052); assay: Ratio of IC50 of AT2/AT1 receptors; assay type: protein assay
Rattus norvegicus [11] = assay: Effective dose in rat after intravenous administration; Range is (0.12 - 0.15); assay type: functional
Canis familiaris [12] = assay: Inhibition on AII-induced pressor responses in Beagle dogs at a dose of 0.3 upon iv administration at duration of >6 hr; assay type: functional, Canis lupus familiaris
Rattus norvegicus [13] = assay: Effective dose in rat after peroral administration; Range is (0.001 - 0.167); assay type: functional; details: po
Rattus norvegicus [14] = assay: Effective dose in rat after intravenous administration; Range is (0.062 - 0.076); assay type: functional
Rattus norvegicus [15] = assay: Inhibition on AII-induced pressor responses in rats at a dose of 0.3 upon iv administration at duration of >6 hr; assay type: functional
Rattus norvegicus [16] = assay: Inhibition on AII-induced pressor responses in rats at a dose of 0.3 upon po administration at duration of >6 hr; assay type: functional

SMILES | IC50 [1] [nM] | IC50 [2] [nM] | also measured
CCCCCC(=O)NS(=O)(=O)c1ccccc1-c1ccc(Cn2c(CCCC)nc3cc(NC(=O)CCCC)cnc32)cc1 | 2.7 | 0.37 | –
CCCCOC(=O)NS(=O)(=O)c1ccccc1-c1ccc(Cn2c(CCC)nc3c(C)c(NC(=O)CCC)cnc32)cc1 | 5.6 | 0.51 | –
CCCC(=O)Nc1cnc2c(nc(CCC)n2Cc2ccc(-c3ccccc3S(=O)(=O)NC(=O)OCc3ccccc3)cc2)c1C | 0.94 | 0.33 | Max inhibition (Canis familiaris [3]): 100%; Max inhibition (Canis familiaris [4]): 76%; ED50 (Canis familiaris [5]): 0.027 mg/kg; ED50 (Canis familiaris [6]): 0.58 mg/kg; ED50 (Rattus norvegicus [7]): 0.28 mg/kg; Max inhibition (Rattus norvegicus [8]): 85%; Max inhibition (Rattus norvegicus [9]): 58%; Ratio [10]: 2.8; ED50 (Rattus norvegicus [11]): 0.13 mg/kg
CCc1nc2c(C)cc(C)nc2n1Cc1ccc(-c2ccccc2S(=O)(=O)NC(=O)CCC2CCCC2)cc1 | 33 | 0.1 | –
CCc1nc2c(C)cc(C)nc2n1Cc1ccc(-c2ccccc2-c2nnn[nH]2)cc1 [L-158809] | > 10000 | – | –
CCCCCN(C(=O)c1ccccc1)c1ccc2nc(CCC)n(Cc3ccc(-c4ccccc4-c4nn[nH]n4)cc3)c(=O)c2c1 | – | 1 | –
CCCCC(=O)Nc1cc2nc(CCCC)n(Cc3ccc(-c4ccccc4S(=O)(=O)NC(=O)CCC4CCCC4)cc3)c2nc1C | 0.31 | 0.1 | –
CCCCc1nc2cc(NC(=O)N(c3ccccc3)c3ccccc3)c(C)nc2n1Cc1ccc(-c2ccccc2-c2nn[nH]n2)cc1 | 510 | 0.6 | –
CCCCOC(=O)NS(=O)(=O)c1ccccc1-c1ccc(Cn2c(CCCC)nc3cc(NC(=O)CCCC)c(C)nc32)cc1 | – | – | Max inhibition (Canis familiaris [12]): 100%; ED50 (Rattus norvegicus [13]): 0.014 mg/kg; ED50 (Rattus norvegicus [14]): 0.069 mg/kg; Max inhibition (Rattus norvegicus [15]): 82%; Max inhibition (Rattus norvegicus [16]): 86%
CCCC(=O)Nc1c(C)nc2c(nc(CCC)n2Cc2ccc(-c3ccccc3S(=O)(=O)NC(=O)CCC3CCCC3)cc2)c1C | 0.25 | 0.26 | –
